Test results from patent US11530233B2, “Beta-nicotinate ester nucleotides and processes for preparing same” (Cornell University, priority 2017, dated 2022).

Tests used:
HEK-293 cells = experiment: NAD+ concentration in HEK-293 cells after treatment with nicotinic acid ester mononucleotides (NAD+ cycling assay); type: cell-based, human; conditions: HEK293, 24 hr incubation
Experimental: L. et al., Arch. Biochem. Biophys., 175: 627-634 (1976)). The cells were washed with PBS, counted by haemocytometry and pelleted. The cells were then treated with 7% perchloric acid, and then neutralized with 1 M NaOH and 500 mM potassium phosphate pH 8.5. NAD^+ contents were then measured on a plate reader using diaphorase and lactate dehydrogenase using Resazurin as a dye that is reduced to rezarufin (emission 560 nm). NAD^+ levels were quantitated using a standard curve using known NAD^+ concentrations. NAD^+ concentrations are determined to nmol NAD^+/10^6 cells. All values in Table 1 are listed as compared to control.

HEK293 cells = experiment: Intracellular NAD+ levels in HEK293 cells after 8 h incubation with NaMN or NR; type: cell-based, human; conditions: 1 mM, HEK293, FIG. 4
Experimental: (§1) The ability of nicotinic acid mononucleotide, NaMN, to serve as an NAD^+ enhancing agent in mammalian cell lines, Neuro2a and HEK293 cells was examined after an 8 h incubation. NaMN was added to cell growth media at a concentration of 1 mM. All cell treatments were done in duplicate. Nicotinamide riboside (NR) at 1 mM concentration was performed as a positive control. Untreated cells served as negative controls. Cells were treated for the allotted time then harvested by trysin detachment and pelleting. Cells were counted by haemocytometer and then lysed by treatment with 100 μL perchloric acid (7%). Lysates were then neutralized by treatment with NaOH and K2PO4 solutions. NAD^+ concentrations were determined by a daphorase-based assay. NAD^+ standards were also run to establish a standard curve. The results are graphically depicted in FIG. 4.

Neuro2a cells = experiment: Intracellular NAD+ levels in Neuro2a cells after 8 h incubation with NaMN or NR; type: cell-based; conditions: 1 mM, FIG. 4
Experimental: as §1

With `CCCCCCCOC(=O)c1ccc[n+]([C@@H]2O[C@H](COP(=O)([O-])O)[C@H](O)[C@@H]2O)c1` [compound 5e, ((2R,3R,4S,5R)-3,4-dihydroxy-5-(3-(heptyloxycarbonyl)pyridin-1-ium-1-yl)tetrahydrofuran-2-yl)methyl hydrogen phosphate] the “NAD^+ Level (% versus control)” value (HEK-293 cells; 25 μM) was 152 ± 19 % versus control, the “NAD^+ Level (% versus control)” value (HEK-293 cells; 100 μM) was 150 ± 11 % versus control and the “NAD^+ Level (% versus control)” value (HEK-293 cells; 500 μM) was 123 ± 21 % versus control.
In the case of `CCCCOC(=O)c1ccc[n+]([C@@H]2O[C@H](COP(=O)([O-])O)[C@H](O)[C@@H]2O)c1` [compound 5b, ((2R,3R,4S,5R)-3,4-dihydroxy-5-(3-(butoxycarbonyl)pyridin-1-ium-1-yl)tetrahydrofuran-2-yl)methyl hydrogen phosphate], the “NAD^+ Level (% versus control)” value (HEK-293 cells; 25 μM) is reported as 104 ± 29 % versus control, the “NAD^+ Level (% versus control)” value (HEK-293 cells; 100 μM) is reported as 165 ± 31 % versus control and the “NAD^+ Level (% versus control)” value (HEK-293 cells; 500 μM) is reported as 103 ± 32 % versus control.
In the case of `CCCCCCCCOC(=O)c1ccc[n+]([C@@H]2O[C@H](COP(=O)([O-])O)[C@H](O)[C@@H]2O)c1` [compound 5f, ((2R,3R,4S,5R)-3,4-dihydroxy-5-(3-(octyloxycarbonyl)pyridin-1-ium-1-yl)tetrahydrofuran-2-yl)methyl hydrogen phosphate], the “NAD^+ Level (% versus control)” value (HEK-293 cells; 200 μM) is reported as 90 ± 8.7 % versus control.
With `CCCCCOC(=O)c1ccc[n+]([C@@H]2O[C@H](COP(=O)([O-])O)[C@H](O)[C@@H]2O)c1` [compound 5c, ((2R,3R,4S,5R)-3,4-dihydroxy-5-(3-(pentyloxycarbonyl)pyridin-1-ium-1-yl)tetrahydrofuran-2-yl)methyl hydrogen phosphate] the “NAD^+ Level (% versus control)” value (HEK-293 cells; 25 μM) was 80 ± 21 % versus control, the “NAD^+ Level (% versus control)” value (HEK-293 cells; 100 μM) was 105 ± 26 % versus control and the “NAD^+ Level (% versus control)” value (HEK-293 cells; 200 μM) was 171 ± 18 % versus control. For the same compound, the “NAD^+ Level (% versus control)” value (HEK-293 cells; 500 μM) was 124 ± 27 % versus control.
With `NC(=O)c1ccc[n+]([C@@H]2O[C@H](CO)[C@@H](O)[C@H]2O)c1` [NR, Nicotinamide riboside] the “intracellular NAD^+ content versus untreated cells” value (HEK293 cells) was “increased NAD^+ contents in cells” and the “intracellular NAD^+ content versus untreated cells” value (Neuro2a cells) was “increased NAD^+ contents in cells”.
With `O=C(O)c1ccc[n+]([C@@H]2O[C@H](COP(=O)(O)O)[C@@H](O)[C@H]2O)c1` [NaMN, nicotinic acid mononucleotide] the “intracellular NAD^+ content versus untreated cells” value (HEK293 cells) was “No intracellular increase in NAD^+” and the “intracellular NAD^+ content versus untreated cells” value (Neuro2a cells) was “No intracellular increase in NAD^+”.
In the case of `CCCCCCOC(=O)c1ccc[n+]([C@@H]2O[C@H](COP(=O)([O-])O)[C@H](O)[C@@H]2O)c1` [compound 5d, ((2R,3R,4S,5R)-3,4-dihydroxy-5-(3-(hexyloxycarbonyl)pyridin-1-ium-1-yl)tetrahydrofuran-2-yl)methyl hydrogen phosphate], the “NAD^+ Level (% versus control)” value (HEK-293 cells; 25 μM) is reported as 136 ± 26 % versus control, the “NAD^+ Level (% versus control)” value (HEK-293 cells; 100 μM) is reported as 162 ± 15 % versus control and the “NAD^+ Level (% versus control)” value (HEK-293 cells; 500 μM) is reported as 146 ± 48 % versus control.
